Assay results as given in ChEMBL document CHEMBL3271999, “Antimycotic imidazoles. 2. Synthesis and antimycotic properties of 1-[2-(arylalkyl)-2-phenylethyl]-1H-imidazoles” (1977).
Activity calls are given as the source filed them. The calls are words filed in the database; no cut-off is given here.

Experiments:
[1] = tested on: Phialophora verrucosa; test: Antifungal activity against Phialophora verrucosa assessed as lowest dose level for total inhibition of fungal growth; type: functional
[2] = tested on: Trichophyton mentagrophytes; test: Antifungal activity against Trichophyton mentagrophytes assessed as lowest dose level for total inhibition of fungal growth; type: functional
[3] = tested on: Saprolegnia; test: Antifungal activity against Saprolegnia species assessed as lowest dose level for total inhibition of fungal growth; type: functional
[4] = tested on: Candida albicans; test: Antifungal activity against Candida albicans assessed as lowest dose level for total inhibition of fungal growth; type: functional
[5] = tested on: Erysipelothrix rhusiopathiae; test: Antibacterial activity against Erysipelothrix insidiosa assessed as lowest dose level for total inhibition of bacterial growth; type: functional
[6] = tested on: Cryptococcus neoformans; test: Antifungal activity against Cryptococcus neoformans assessed as lowest dose level for total inhibition of fungal growth; type: functional
[7] = tested on: Candida tropicalis; test: Antifungal activity against Candida tropicalis assessed as lowest dose level for total inhibition of fungal growth; type: functional
[8] = tested on: Microsporum canis; test: Antifungal activity against Microsporum canis assessed as lowest dose level for total inhibition of fungal growth; type: functional
[9] = tested on: Streptococcus pyogenes; test: Antibacterial activity against Streptococcus pyogenes assessed as lowest dose level for total inhibition of bacterial growth; type: functional
[10] = tested on: Mucor; test: Antifungal activity against Mucor species assessed as lowest dose level for total inhibition of fungal growth; type: functional
[11] = tested on: Trichophyton rubrum; test: Antifungal activity against Trichophyton rubrum assessed as lowest dose level for total inhibition of fungal growth; type: functional
[12] = tested on: Candida albicans; test: In vivo antifungal activity against Candida albicans topically infected in guinea pig assessed as animal cured at 10 mg/kg, po; type: functional, organism-based; design: dose 10 mg/kg
[13] = tested on: Staphylococcus haemolyticus; test: Antibacterial activity against Staphylococcus haemolyticus assessed as lowest dose level for total inhibition of bacterial growth; type: functional
[14] = tested on: Aspergillus fumigatus; test: Antifungal activity against Aspergillus fumigatus assessed as lowest dose level for total inhibition of fungal growth; type: functional
[15] = tested on: Sporothrix schenckii; test: Antifungal activity against Sporothrix schenckii assessed as lowest dose level for total inhibition of fungal growth; type: functional

| SMILES | Activity [1] | Activity [2] | Activity [3] | Activity [4] | Activity [5] | Activity [6] | Activity [7] | Activity [8] | Activity [9] | Activity [10] | Activity [11] | Activity [12] | Activity [13] | Activity [14] | Activity [15] |
| --- | --- | --- | --- | --- | --- | --- | --- | --- | --- | --- | --- | --- | --- | --- | --- |
| Clc1ccc(C(Cc2ccc(Br)cc2)Cn2ccnc2)c(Cl)c1.O=[N+]([O-])O (stereo not drawn) | 10 µg/mL | <1 µg/mL | 100 µg/mL | 10 µg/mL | <1 µg/mL | <1 µg/mL | 10 µg/mL | 10 µg/mL | <1 µg/mL | 10 µg/mL | <1 µg/mL | inactive | 10 µg/mL | 100 µg/mL | 10 µg/mL |
| COc1ccc(CCC(Cn2ccnc2)c2ccc(Cl)cc2Cl)cc1.O=[N+]([O-])O (stereo not drawn) | 10 µg/mL | <1 µg/mL | 10 µg/mL | >100 µg/mL | <1 µg/mL | <1 µg/mL | >100 µg/mL | 10 µg/mL | <1 µg/mL | 100 µg/mL | <1 µg/mL | inactive | 1 µg/mL | 100 µg/mL | 10 µg/mL |
| Clc1ccc(CC(Cn2ccnc2)c2ccccc2Br)cc1.O=[N+]([O-])O (stereo not drawn) | 100 µg/mL | <1 µg/mL | 100 µg/mL | 10 µg/mL | <1 µg/mL | <1 µg/mL | >100 µg/mL | 100 µg/mL | 1 µg/mL | 100 µg/mL | <1 µg/mL |  | 10 µg/mL | 100 µg/mL | 10 µg/mL |
| Clc1ccccc1CC(Cn1ccnc1)c1ccccc1Cl.O=[N+]([O-])O (stereo not drawn) | 100 µg/mL | <1 µg/mL | 100 µg/mL | 100 µg/mL | 1 µg/mL | <1 µg/mL | >100 µg/mL | 10 µg/mL | <1 µg/mL | 100 µg/mL | <1 µg/mL | inactive | 100 µg/mL | 10 µg/mL | 10 µg/mL |
| Clc1ccc(CC(Cn2ccnc2)c2ccccc2Cl)cc1.O=[N+]([O-])O (stereo not drawn) | 100 µg/mL | <1 µg/mL | 100 µg/mL | 10 µg/mL | 1 µg/mL | <1 µg/mL | >100 µg/mL | 10 µg/mL | 1 µg/mL | 100 µg/mL | <1 µg/mL | Active | 100 µg/mL | 100 µg/mL | 10 µg/mL |
| Clc1ccc(C(Cc2c(Cl)cccc2Cl)Cn2ccnc2)cc1.O=[N+]([O-])O (stereo not drawn) | 100 µg/mL | <1 µg/mL | 100 µg/mL | >100 µg/mL | <1 µg/mL | <1 µg/mL | >100 µg/mL | 10 µg/mL | <1 µg/mL | 10 µg/mL | 10 µg/mL |  | 10 µg/mL | 100 µg/mL | 10 µg/mL |
| Clc1ccc(COC(Cn2ccnc2)c2ccc(Cl)cc2Cl)c(Cl)c1 (stereo not drawn) [MICONAZOLE] | 100 µg/mL | <1 µg/mL | 10 µg/mL | 10 µg/mL | <1 µg/mL | 1 µg/mL | 100 µg/mL | 1 µg/mL | <1 µg/mL | >100 µg/mL | <1 µg/mL |  | 10 µg/mL | 10 µg/mL | 1 µg/mL |
| Clc1ccc(C(CCc2ccccc2Cl)Cn2ccnc2)c(Cl)c1.O=[N+]([O-])O (stereo not drawn) | 100 µg/mL | <1 µg/mL | 100 µg/mL | 10 µg/mL | <1 µg/mL | <1 µg/mL | >100 µg/mL | 10 µg/mL | 1 µg/mL | 100 µg/mL | <1 µg/mL |  | 1 µg/mL | 100 µg/mL | <1 µg/mL |
| Cc1ccccc1C(Cc1ccc(Cl)cc1Cl)Cn1ccnc1.O=[N+]([O-])O (stereo not drawn) | 100 µg/mL | <1 µg/mL | 100 µg/mL | 100 µg/mL | 1 µg/mL | 10 µg/mL | 100 µg/mL | 10 µg/mL | 10 µg/mL | 10 µg/mL | <1 µg/mL |  | 10 µg/mL | 10 µg/mL | 10 µg/mL |
| Cc1ccccc1C(Cc1ccc(Cl)cc1)Cn1ccnc1.O=[N+]([O-])O (stereo not drawn) | 100 µg/mL | <1 µg/mL | 100 µg/mL | >100 µg/mL | 1 µg/mL | 10 µg/mL | >100 µg/mL | 10 µg/mL | <1 µg/mL | 100 µg/mL | 10 µg/mL |  | 10 µg/mL | 100 µg/mL | 100 µg/mL |
| Clc1ccc(C(CCc2ccc(Br)cc2)Cn2ccnc2)c(Cl)c1.O=[N+]([O-])O (stereo not drawn) | 100 µg/mL | <1 µg/mL | 10 µg/mL | >100 µg/mL | <1 µg/mL | <1 µg/mL | 10 µg/mL | 10 µg/mL | <1 µg/mL | >100 µg/mL | <1 µg/mL |  | 10 µg/mL | 100 µg/mL | 10 µg/mL |
| Clc1ccc(C(Cc2ccc(Cl)cc2Cl)Cn2ccnc2)cc1.O=[N+]([O-])O (stereo not drawn) | 100 µg/mL | <1 µg/mL | 100 µg/mL | 100 µg/mL | <1 µg/mL | <1 µg/mL | 100 µg/mL | 10 µg/mL | 1 µg/mL | 100 µg/mL | <1 µg/mL |  | 10 µg/mL | 100 µg/mL | 10 µg/mL |
| Clc1ccc(C(Cc2c(Cl)cccc2Cl)Cn2ccnc2)c(Cl)c1.O=[N+]([O-])O (stereo not drawn) | 100 µg/mL | <1 µg/mL | 100 µg/mL | 100 µg/mL | 1 µg/mL | <1 µg/mL | 100 µg/mL | 10 µg/mL | 1 µg/mL | 100 µg/mL | <1 µg/mL |  | 100 µg/mL | 100 µg/mL | <1 µg/mL |
| Clc1ccc(C(Cc2ccccc2Cl)Cn2ccnc2)c(Cl)c1.O=[N+]([O-])O (stereo not drawn) | 10 µg/mL | <1 µg/mL | 10 µg/mL | 100 µg/mL | <1 µg/mL | <1 µg/mL | <1 µg/mL | 10 µg/mL | <1 µg/mL | 100 µg/mL | <1 µg/mL |  | 10 µg/mL | 100 µg/mL | <1 µg/mL |
| Clc1ccccc1C(Cc1c(Cl)cccc1Cl)Cn1ccnc1.O=[N+]([O-])O (stereo not drawn) | 100 µg/mL | <1 µg/mL | 100 µg/mL | 100 µg/mL | 1 µg/mL | 10 µg/mL | >100 µg/mL | <1 µg/mL | <1 µg/mL | >100 µg/mL | <1 µg/mL |  | 1 µg/mL | 10 µg/mL | 10 µg/mL |
| Cc1ccccc1C(Cc1c(Cl)cccc1Cl)Cn1ccnc1.O=[N+]([O-])O (stereo not drawn) | 100 µg/mL | <1 µg/mL | 100 µg/mL | >100 µg/mL | <1 µg/mL | 100 µg/mL | >100 µg/mL | 10 µg/mL | <1 µg/mL | 100 µg/mL | <1 µg/mL |  | 10 µg/mL | 100 µg/mL | 100 µg/mL |
